Consider eleven compounds from ChEMBL document CHEMBL1201862, “PubChem BioAssay data set” (2004).

Among the test systems are T47D; HCT-15; CCRF-CEM; SF-539; KM12; COLO 205; UACC-62; MOLT-4; OVCAR-4; SK-OV-3; HT-29; SN12C; RPMI-8226; DU-145; MCF7; Malme-3M; SF-295; PC-3; HCC 2998.
Test in all cases: NCI-60 cell line screen, 48 h

Where “and” joins values, the source holds several entries; their conditions need not be identical. Equal entries are not always repeated.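 Briefly, cells in 96-well plates were exposed to five compound concentrations for 48 h, and endpoints were estimated by linear interpolation. GI50 = concentration required for 50% inhibition of growth.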 Calls of active or inactive are those of the source. Cut-off read from the data, not from the text of the source: active = GI50 up to about 1.1 µM and inactive = higher. Where only a bound is given, the exact number is not on record here.

In the case of `COc1ccc2nc(-c3ccc(O)cc3)cn2c1`, the GI50 was 89.9 µM (inactive) in the test with T47D; 48.8 µM in the test with HCT-15; 72.1 µM (inactive) with CCRF-CEM; 54.1 µM (inactive) with SF-539; 50.2 µM (inactive) with KM12; 43.5 µM (inactive) in the test on COLO 205. Also, the GI50 is 24.7 µM (inactive) in the test on UACC-62; 49.1 µM (inactive) in the test on MOLT-4; 73.8 µM (inactive) in the test with OVCAR-4; > 100 µM (inactive) in the test with SK-OV-3; 46.6 µM (inactive) with HT-29; 94.8 µM (inactive) with SN12C. Also, the GI50 in the test on RPMI-8226 is 32.2 µM (inactive); in the test with DU-145 it was 86.9 µM (inactive); in the test on MCF7 it was 36 µM (inactive); in the test on Malme-3M it was > 100 µM (inactive); with SF-295, > 100 µM (inactive); in the test on PC-3 it was 43.9 µM (inactive).
As for `CC(C)N1CCN(c2ccncc2S(=O)(=O)N2CCCCC2)CC1`, the GI50 with T47D was > 100 µM (inactive); with HCT-15 it was more than 100 µM; with SF-539 it was > 100 µM (inactive); in the test with KM12 it was > 100 µM (inactive); in the test on HCC 2998, > 100 µM (inactive); with COLO 205, > 100 µM (inactive). Besides, the GI50 in the test with UACC-62, in the test with OVCAR-4, with SK-OV-3, in the test with HT-29, in the test on SN12C and in the test with RPMI-8226 was > 100 µM (inactive) in each case. For the same compound, the GI50 with DU-145, in the test with MCF7, in the test with Malme-3M, in the test on SF-295 and with PC-3 was > 100 µM (inactive) throughout.
Take `O=C1C=CC(=O)c2c(O)nc(CBr)nc21`: the GI50 in the test with T47D was > 100 µM (inactive); with HCT-15 it was more than 100 µM; with SF-539, > 100 µM (inactive); in the test with KM12, 52 µM (inactive); in the test with HCC 2998 it was > 100 µM (inactive); with COLO 205 it was > 100 µM (inactive). For the same compound, the GI50 in the test with UACC-62 was 46.5 µM (inactive); in the test with MOLT-4 it was > 100 µM (inactive); with OVCAR-4 it was > 100 µM (inactive); with SK-OV-3, > 100 µM (inactive); in the test on HT-29, 60.5 µM (inactive); with SN12C, 38.5 µM (inactive). The GI50 is 97.9 µM (inactive) with RPMI-8226; > 100 µM (inactive) with DU-145; 56.2 µM (inactive) in the test on MCF7; > 100 µM (inactive) with Malme-3M; 68.9 µM (inactive) in the test with SF-295; 42.2 µM (inactive) in the test with PC-3.
Take `O=P1(C(O)/C=C/c2ccccc2)N(Cc2ccccc2)[C@@H]2CCCC[C@H]2N1Cc1ccccc1` (stereo not given in full): the GI50 is 4.76 µM (inactive) with T47D; 6.14 µM in the test with HCT-15; 5.19 µM (inactive) in the test with CCRF-CEM; 4.66 µM (inactive) with KM12; 3.9 µM (inactive) with HCC 2998; 2.42 µM (inactive) with COLO 205. Also, the GI50 is 6.98 µM (inactive) in the test on UACC-62; 2.93 µM (inactive) with MOLT-4; 5.38 µM (inactive) with OVCAR-4; 24 µM (inactive) in the test with SK-OV-3; 3.67 µM (inactive) in the test with HT-29; 3.32 µM (inactive) in the test with SN12C. The GI50 in the test with RPMI-8226 was 2.14 µM (inactive); in the test with DU-145, 12.9 µM (inactive); with MCF7, 3.24 µM (inactive); in the test with Malme-3M, 2.98 µM (inactive); in the test on SF-295 it was 4.42 µM (inactive); in the test on PC-3, 3.14 µM (inactive).
As for `C=C1C(=O)OC2CC1C(OC(C)=O)C/C(C)=C/CC/C(C)=C\CCC2(C)O` (stereo not given), the GI50 in the test on T47D is 3.4 µM (inactive) and 4.56 µM (inactive); in the test with HCT-15, 1.56 µM and 3.04 µM; in the test with SF-539, 3.48 µM (inactive) and 5.43 µM (inactive); in the test with HCC 2998, 7.69 µM (inactive) and 4.74 µM (inactive); in the test with COLO 205, 3.98 µM (inactive) and 3.92 µM (inactive); with MOLT-4, 2.22 µM (inactive) and 1.88 µM (inactive). Besides, the GI50 with OVCAR-4 is 6.35 µM (inactive) and 5.73 µM (inactive); with SK-OV-3 it was 19.5 µM (inactive) and 24.5 µM (inactive); in the test on SN12C it was 4.55 µM (inactive) and 3.09 µM (inactive); with RPMI-8226 it was 1.9 µM (inactive) and 1.82 µM (inactive); with DU-145 it was 3.95 µM (inactive) and 5.77 µM (inactive); in the test with MCF7, 3.8 µM (inactive) and 3.74 µM (inactive). Besides, the GI50 in the test with Malme-3M is 3.25 µM (inactive); in the test with SF-295 it was 21.3 µM (inactive) and 17.2 µM (inactive).
For the compound `CC(Br)C(=O)NC(CO)C(=O)O` (stereo not given), the GI50 is > 100 µM (inactive) with T47D; more than 100 µM in the test with HCT-15; > 100 µM (inactive) in the test with CCRF-CEM; > 100 µM (inactive) with SF-539; > 100 µM (inactive) in the test with KM12; > 100 µM (inactive) in the test on COLO 205. For the same compound, the GI50 in the test on UACC-62, in the test on MOLT-4, with OVCAR-4, in the test with SK-OV-3, with HT-29 and in the test with SN12C was > 100 µM (inactive) each time. Also, the GI50 in the test on RPMI-8226, in the test with DU-145, in the test with MCF7, with Malme-3M, with SF-295 and with PC-3 was > 100 µM (inactive) throughout.
For the compound `O=C(O)c1cccc(CN2CCCCC2)c1`, the GI50 in the test with T47D is > 100 µM (inactive); with HCT-15 it was more than 100 µM; in the test on CCRF-CEM it was > 100 µM (inactive); in the test on KM12, > 100 µM (inactive); with HCC 2998 it was > 100 µM (inactive); in the test on COLO 205, > 100 µM (inactive). Also, the GI50 in the test on UACC-62, in the test with MOLT-4, with OVCAR-4, in the test on SK-OV-3, in the test on HT-29 and with SN12C was > 100 µM (inactive) throughout. The GI50 with RPMI-8226, in the test on DU-145, in the test with MCF7, with Malme-3M, in the test on SF-295 and with PC-3 was > 100 µM (inactive) in each case.
For the compound `COc1c(C(=O)CC2c3c(cc4oc(C)cc(=O)c4c3OC)OC(=N)C2c2nc3ccccc3[nH]2)c(O)c(OC)c2occc12` (stereo not given), the GI50 is > 100 µM (inactive) in the test with T47D; more than 100 µM in the test with HCT-15; > 100 µM (inactive) in the test with CCRF-CEM; > 100 µM (inactive) with KM12; > 100 µM (inactive) with HCC 2998; > 100 µM (inactive) in the test on COLO 205. Moreover, the GI50 in the test on UACC-62, in the test on MOLT-4, with OVCAR-4, in the test on SK-OV-3, in the test on HT-29 and in the test with SN12C was > 100 µM (inactive) throughout. The GI50 with RPMI-8226, with DU-145, with MCF7, in the test on Malme-3M, in the test with SF-295 and in the test on PC-3 was > 100 µM (inactive) each time.
Regarding `O=C(O)C(Cc1ccccc1)Cc1ccccc1`, the GI50 with T47D is > 100 µM (inactive); with HCT-15 it was more than 100 µM; in the test on CCRF-CEM it was > 100 µM (inactive); with SF-539, > 100 µM (inactive); in the test on KM12, > 100 µM (inactive); in the test with COLO 205, > 100 µM (inactive). Further, the GI50 with UACC-62, in the test on MOLT-4, in the test with OVCAR-4, in the test on SK-OV-3, in the test with HT-29 and in the test on SN12C was > 100 µM (inactive) throughout. For the same compound, the GI50 in the test on RPMI-8226, in the test on DU-145, in the test with MCF7, with Malme-3M, in the test on SF-295 and in the test on PC-3 was > 100 µM (inactive) in each case.
In the case of `CCCCCCCCCCCCCCCCCCNC(=S)N/C=C1/C(=O)C=C(C)OC1=O`, the GI50 in the test with T47D is 31 µM (inactive); with HCT-15, 15.7 µM; with SF-539, 24.3 µM (inactive); with KM12 it was 16.6 µM (inactive); in the test on HCC 2998, 9.53 µM (inactive); in the test on COLO 205 it was 27.7 µM (inactive). For the same compound, the GI50 in the test on UACC-62 is 30.2 µM (inactive); with MOLT-4, 12.7 µM (inactive); with OVCAR-4, 23.7 µM (inactive); with SK-OV-3, 58.2 µM (inactive); in the test with HT-29, 20.8 µM (inactive); in the test with SN12C it was 37.8 µM (inactive). Further, the GI50 with DU-145 is 24.9 µM (inactive); in the test on MCF7 it was 29.9 µM (inactive); in the test on SF-295 it was 23.8 µM (inactive); with PC-3, 17 µM (inactive).
Regarding `CN(C(=O)Cc1cc(Cl)c(Cl)cc1NC(=O)CCCN)[C@H]1CCCC[C@@H]1N1CCCC1`, the GI50 in the test on T47D was 29.8 µM (inactive); in the test with HCT-15 it was more than 100 µM; in the test on KM12, 18.7 µM (inactive); in the test on HCC 2998, 16.6 µM (inactive); with COLO 205 it was 17.9 µM (inactive); with UACC-62, 19.8 µM (inactive). Further, the GI50 in the test with MOLT-4 is 60.8 µM (inactive); in the test with OVCAR-4, 86.3 µM (inactive); with SK-OV-3 it was 95.5 µM (inactive); in the test on HT-29, 20.5 µM (inactive); with SN12C it was 63.5 µM (inactive); in the test with RPMI-8226 it was > 100 µM (inactive). Further, the GI50 in the test with DU-145 was > 100 µM (inactive); in the test on MCF7, 20.1 µM (inactive); with Malme-3M it was 17.1 µM (inactive); in the test with SF-295 it was 58.2 µM (inactive); with PC-3, 40.3 µM (inactive).
